Tested on: moderate-to-severe post-surgical pain (post-surgical dental pain)
Assay: Randomized, double-blind, single-dose, placebo- and comparator-controlled study of pain relief by administered dose (bolus IV)
Assay type: in vivo, human
Conditions: 30 mg single bolus IV dose (comparator)
Protocol: A 336-patient, seven treatment arm, randomized, double-blind, single-dose, and placebo- and comparator-controlled, parallel-group study was conducted. Patients were randomly assigned to receive a single dose of either diclofenac sodium solubilized with hydroxypropyl-beta-cyclodextrin (hereinafter “DIC”), ketorolac tromethamine, or placebo.
Bolus IV injectable 2 ml solutions were prepared by solubilizing diclofenac sodium with hydroxypropyl-beta-cyclodextrin. […]
Pain was assessed by each patient at Baseline (0 hour: Visual Analog Scale (VAS) and categorical pain intensity only), at 5, 15, 30 and 45 minutes, and at 1, 1.5, 2, 3, 4, 5, 6, 7, 8, 10, 12 and 24 hours after administration of study medication and immediately prior to the first dose of rescue medication. At each post-dose time period, levels of pain intensity (categorical and VAS) and pain relief (categorical and VAS) was assessed by each patient. […]
The presence of a dose-response was tested with a step-down testing procedure. Total pain relief (TOTPAR), peak pain relief, pain intensity difference (SPID), summed peak reduction in pain intensity difference (SPRID), and patient global evaluation was analyzed with analysis of variance (ANOVA) with treatment, center, and baseline categorical pain intensity as factors. […] A 95% confidence interval for each estimated median time to event was calculated. […]

Structure (SMILES): O=C(c1ccccc1)c1ccc2n1CCC2C(=O)O (centres unmarked) [ketorolac, ketorolac tromethamine]
- % Maximum Effect (TOTPAR): 100%
- TOTPAR (Sum of Pain Relief VAS 0-100 mm ratings 0-6 hours) (patients, 0-6 hours): 400.3

Reference: US8946292B2, “Formulations of low dose diclofenac and beta-cyclodextrin” (Javelin Pharmaceuticals, Inc., priority 2006, dated 2015)
